Test results: patent US10576078B2 (Council of Scientific & Industrial Research, priority 2017, dated 2020)

Tested on: CD34+ population from CP-CML cells from imatinib-resistant patients
Test: CD34+ count and apoptosis in CD34+ LSC population from imatinib-resistant CP-CML patients
Format: cell-based, Human
Method: CD34^+ population from CP-CML cells from imatinib-resistant patients (n=3) were individually purified using a CD34 microbead kit (Miltenyi Biotech) and were treated with 5 μM CFZ or salinomycin for 48 h. Cells were then divided into two groups. One group was assessed by immunostaining for CD34 and the other group was stained with annexin V/PI and the cells were then analyzed by flow-cytometry. Salinomycin was used as positive control. **p<0.01, ***p<0.0001.
CD34^+ population from primary CP-CML cells from imatinib-resistant patients (n=3) were purified using a CD34 microbead kit. Cells were incubated with V or 2.5 μM CFZ for 96 h, stained with PE-conjugated anti-CD34 and FITC-conjugated anti-CD38 antibodies for specific subpopulation and apoptosis was analyzed by APC labeled annexin V and propidium iodide (PI) staining followed by flow-cytometry (FACSCalibur, BD biosciences). *p<0.05, **p<0.01.
The observed purity was 80-90%.
For assessing apoptosis in the CD34^+ population from CML patients, these cells were then treated as indicated in the figures and figure descriptions (FIG. 2A). At the end of treatment, cells from each treatment group were divided in two separate tubes. One group was stained with CD34-PE and the other group was stained with Annexin V FITC/PI antibodies.
For assessing apoptosis in CD34^+ CD38^+ and CD34^+ CD38^− subpopulations from CML patients, CD34^+ cells were isolated as above and were treated with V or 2.5 μM CFZ for 96 h and then stained with PE-conjugated anti-CD34, FITC-conjugated anti-CD38 antibodies for 30 min and then stained with Annexin V-APC/PI at room temperature for 15 minutes and then were gated into CD34^+38^+ and CD34^+38^− populations and apoptosis was assessed in a FACSAria flow cytometer.

In the case of `CC(C)/N=c1\cc2n(-c3ccc(Cl)cc3)c3ccccc3nc-2cc1Nc1ccc(Cl)cc1` [CFZ, Clofazimine], the “apoptosis in committed CD34+38+ progenitor cells” value (2.5 μM CFZ, 96 h, n=3) is reported as “induced apoptosis”, the “apoptosis in primitive CD34+38− progenitor cells” value (2.5 μM CFZ, 96 h, n=3) is reported as “induced apoptosis” and the “apoptosis in CD34+ LSC population” value (imatinib-resistant CP-CML patients, n=3, 5 μM, 48 h) is reported as “induced apoptosis”. The “CD34+ population” value (imatinib-resistant patients, 5 μM, 48 h) was “reduces”.
